# Source: patent US8790874B2, “Device for investigation of a flow conduit” (priority 2008, dated 2014)
# Tests used:
# Assay type in all cases: cell-based
# mesenteric arteries [1] = test: PE dose response of mesenteric arteries, conventional pipette cannulation setup; conditions: 3.0 μM PE applied to exterior surface, n=5
# From the text: The device may be used to investigate responses of biological flow conduits. […] In this example, PE was applied to the exterior surface of the flow conduit, and the dose of PE was changed in a stepwise fashion.
# mouse mesenteric vessel = test: Constriction of a mesenteric vessel in the device, single dose of PE; conditions: 3.0 μM PE, representative tracing
# Method: In another example, the device was used to investigate a mesenteric vessel. […] In this example, a mouse mesenteric vessel was used, and a single does of PE was administered. The PE was applied to the exterior surface of the flow conduit. a) is a representative tracing of a mesenteric vessel's response to 3.0 μM PE, with a sustained constriction of 41.8%, measured in freshly isolated arteries that were immediately subjected to the stimulation with PE. b) is a representative tracing of a single mesenteric vessel kept in culture for 24 hours on the device prior to testing the response to PE, showing a sustained constriction of 41.4% to 3.0 μM PE.
# mesenteric arteries [2] = test: PE dose response of mesenteric arteries measured using the device; conditions: 3.0 μM PE applied to exterior surface, n=5
# From the text: An example process of loading a flow conduit, in this case an artery, into this example embodiment of the device is now described. The device was initially flushed with a Bovine serum albumin (BSA) solution to prevent any unwanted adhesion of arteries to the walls of the main channel or culture chamber. […] As an alternative to the reversible fixation of the artery used here, an irreversible fixation method may be used, as discussed above.
# Upon fixation (e.g., using a reversible fixation method), the lumen of the artery was perfused by operating a syringe pump, connected to an inlet of the culture channel, in the perfusion mode. By connecting the inlet and outlet of the culture channel to different hydrostatic pressure levels, a flow through the culture chamber was achieved while maintain a defined transmural pressure difference across the wall of the artery. A flow through the culture chamber was achieved while maintaining a defined transmural pressure difference (i.e., P1−P3 in FIG. 1) by superfusing the culture chamber with a second syringe pump that operates in the perfusion mode, connected at the inlet of the culture channel. The outlet of the culture channel was thus led to a reduced hydrostatic pressure level. […]
# mouse mesenteric artery = test: FURA-2 Ca2+ ratiometric measurements on a mesenteric artery fixed on the device; conditions: stimulation with 3.0 μM PE; return to baseline following washout
# From the text: The smooth muscle cells in the artery are stained.
smiles,measurement,setting,value
"CNC[C@H](O)c1cccc(O)c1 [PE, phenylephrine]",maximal outer diameter constriction,mesenteric arteries [1],44.5+/−2.5%
same,sustained constriction,"mouse mesenteric vessel; freshly isolated arteries, immediately stimulated",41.8%
same,sustained constriction,mouse mesenteric vessel; vessel kept in culture for 24 hours on the device before testing,41.4%
same,maximal outer diameter constriction,mesenteric arteries [2],42.2+/−3.8%
same,FURA-2 ratio (F340nm/F380nm),mouse mesenteric artery,increase in FURA-2 ratio
